# Patent publication US11452702B2, “Compositions comprising amino acids for use in the treatment of mitochondrial dysfunction-related diseases” (PROFESSIONAL DIETETICS INTERNATIONAL S.R.L., priority 2017, dated 2022)
# Test system: HL-1 cardiomyocytes
# Assay: Oxygen consumption (Clark-type oxygen electrode) in HL-1 cardiomyocytes
# Format: cell-based, Mus musculus
# Conditions: HL-1 cells, 48 hr treatment, normalized to protein content; FIG. 5
# Description: Oxygen consumption in HL-1 cardiomyocytes treated with amino acid based compositions or DETA-NO for 48 hr. ****p<0.001 vs. untreated cell; ####p<0.001 vs. BCAAem and B2.
# An amount of 1 ml of HL-1 cardiomyocytes treated with the compositions shown in Table 1 was re-suspended in Hank's balanced salt solution (Sigma) and spun down to pellet cells. A number of HL-1 cells was also supplemented with a nitic oxide (NO) donor, specifically with diethylenetriamine-NO also called DETA-NO (Sigma-Aldrich, Milan, Italy), as positive control.
# Then, cells were re-suspended in a respiration buffer (0.3 M mannitol, 10 mM KCl, 5 mM MgCl2, 10 mM K2PO4, pH 7.4) at a density of 3.0×10^6/ml.
# Samples were analyzed at 37° C. in a gas-tight vessel equipped with a Clark-type oxygen electrode (Rank Brothers Ltd.) connected to a chart recorder.
# The oxygen electrode was calibrated assuming the concentration of oxygen in the incubation medium as 200 μmol/l at 37° C.
# Oxygen consumption was assessed with continuous mixing for about ten minutes. The slope of the trace recorder was then used to calculate oxygen consumption. Oxygen content may vary depending on the amount of cells. Thus, protein content, which directly correlates with cell content, has been used to normalize the oxygen consumption in cell samples. Protein content was determined by using the bicinchoninic acid protein (BCA) assay.
structure (smiles),measurement,value
"NCCN(CCN)/[N+]([O-])=N/O [DETA-NO, diethylenetriamine-NO]",oxygen consumption,rise
